From PMC5427942, “Methionine aminopeptidase 2 is a key regulator of apoptotic like cell death in Leishmania donovani” (Scientific Reports, 2017)

B1: methionine aminopeptidase 2 (LdMAP2) (Leishmania donovani) (protein)
chain: MPPKMSAKNKQQPKQQGGNKKGKGSSQDGDDFDAMLAAAVNASKADAAKNHSNNHQGKRSSNGNGTAPASRSLAADEPVVPSSADHPENPYPKTADGYPRQTWPEPTVLVSKQFAPGQFPAGEIVDHPGEMNNFRRSSEEKRALARASEQQVQEMREAAEVHRQVRTWAQSWIKPGLSLMLMTDRIEKKLNELIGKDGILRGQAFPTGCSLNHVAAHYTPNTGDEKVVLAYDDVMKVDFGTHINGRIIDCAWTVAFNPMFDPLLQAVKEATYEGIKQAGIDVRLGDIGAAIEEVMESHEVEINGKVHQVKSIRNLSGHNIAPYIIHSGKSVPIVKGGEQTKMEEGEVFAIETFGSTGRGFVNEDLECSHYMMRPGAEVMQLRSEKAQQLLKHIHKSYSTLAFCRKWLDRDGFDRHLMNLNRLVDEGAVNKYPPLVDVKGSYTAQYEHTIYLGPTAKEILSKGSDY

Assays:
[1] = target: T1, methionine aminopeptidase 2 (LdMAP2) (Leishmania donovani, UniProt A0A3S7WWI2); assay: fluorogenic Met-AMC hydrolysis assay, Lineweaver-Burk plot, single inhibitor concentration ([…]); assay type: biochemical
T1 construct: gene LdCL_210014600

purified protein = substrate: CSCC[C@H](N)C(=O)Nc1ccc2c(C)cc(=O)oc2c1; assay: purified protein; conditions: divalent metal ion ([…] NiSO4 in assay)

| Molecule | Ki [1] [nM] | Km (purified protein) [µM] |
| --- | --- | --- |
| CO[C@@H]1[C@H](OC(=O)NC(=O)CCl)CC[C@]2(CO2)[C@H]1[C@@]1(C)O[C@@H]1CC=C(C)C [TNP-470, 5-methoxy-4-(2-methyl-3-(3-methyl-2-butenyl)oxiranyl)-1-oxaspiro(2,5)oct-6-yl (chloroacetyl) carbamate] | 13.5 |  |
| B1 |  | 200 |
